Experimental data published in patent publication US5234934A, “Aminopropanol derivatives, process for their preparation and pharmaceutical compositions comprising the same” (priority 1989, dated 1993).
Like-named read-outs stand apart in the source and are kept apart here.

Experiments:
gastric acid secretion = gastric acid secretion test (Shay); format: in vivo, rat; conditions: Rattus norvegicus, read-out: Inhibition of free acid, %
Protocol: The test was carried out according to Shay's operational method. […] On the day of the test the pylorus of the animals was bound under ether narcosis. The test compounds were administered orally 3 hours before the operation. The animals of the control group were administered with the carrier only. 4 hours after the operation the stomach was removed, the content thereof was centrifuged and the amount of free acid was determined by titration with 0.1N sodium hydroxide.

[1] = acute toxicity test in mice (Litchfield and Wilcoxon); format: in vivo, mouse; conditions: mouse, in vivo, po., 14 days observation
Protocol: The test for acute toxicity was carried out by using 10 white mice (CFLP strain) (both male and female), weighing 18 to 22 g in each dose group. The compounds of the invention were administered orally in a dose of 20 ml/kg.
The animals were kept in a plastic box on wood chips in a room of room temperature. They could consume tap water and standard mouse feed ad libitum. The toxicity data were determined by the method of Litchfield and Wilcoxon (Litchfield, J. T., Wilcoxon, F. W.: J. Pharmacol. Exp. Ther. 96, 99/1949/).

[2] = system: peristalty of stomach and intestines; experiment: effect exerted on the peristalty of stomach and intestines (Stickney et al., carbon suspension); format: in vivo, mouse; conditions: for ED50: Mus musculus, read-out: ED50 (antiperistaltic); for TI (therapeutic index): antiperistaltic
Protocol: The antiperistaltic effect of the compounds was examined by the method of Stickney et al. on white mice of both sexes, weighing 20 to 25 g. The compounds to be tested were administered per os 60 minutes before the addition of carbon suspension to groups containing 10 mice each. The animals of the control groups were treated at the same time and in the same manner with the carrier only. The mice were killed 10 minutes after the addition of the carbon suspension, and the whole length of the intestines as well as the length of the intestines filled with carbon suspension were measured.

hexobarbital narcosis = experiment: narcosis potentiating effect (hexobarbital sleeping time); conditions: for ED50: Mus musculus, po, read-out: ED50 (narcosis potentiation); for TI (therapeutic index): narcosis potentiation, mice, po.
Protocol: The narcosis potentiating effect of the compounds of the invention were examined on white mice, with 6 animals in each group. The mice were administered orally with the compounds of the invention, then both the control and the test groups were intravenously added 40 mg/kg of hexobarbital in order to make the mice sleep (Kaergard et al.).

[3] = system: aconitine-induced ECG alterations; experiment: animal or person; format: in vivo, rat; conditions: Rattus norvegicus, iv, read-out: Effect % (antiarrhythmic)
Protocol: The test was carried out by using the modified method of Marmo et al. on rats weighing 160 to 200 g. The animals were narcotised by ethyl uretane (1.2 g/kg ip.). Aconitin was administered intravenously in a dose of 75 /ug/kg in the form of a bolus injection. The ECG alterations were monitored in standard II lead by 5 minutes after the administration of aconitine. The observed alterations were classified into classes 0 to 5. The compounds of the invention were administered 2 minutes or 60 minutes before the parenteral or oral administration of aconitine, respectively. […]
class 1: sometimes an extrasystole occurs class 2: each second one is an extrasystole class 3: extrasystoles in groups class 4: each one is an extrasystole class 5: fibrillation, death
(Marmo, E., DiGiacomo, S., Imperatore, A.: Arzeimittel-Forschung 20, 12/1970/)

nervus ischiadicus = experiment: local analgesic effect (Truant d'Amato's method); format: in vivo; conditions: for EC50 %: 0.2 ml injected around nervus ischiadicus; for Duration of effect: in a conc. of 0.5%
Protocol: The tests were carried out according to Truant d'Amato's method. 0.2 ml of test material was injected around the nervus ischiadicus in the middle of femur with a needle of 1 cm length. The criterion of analgesic effect was the lack of the motoric control of foot muscles.
The duration of effect was registered and the 50 percentile effective concentration (EC50) was calculated on the basis of the dose-effect curve. Lidocain was used as comparative material. (Truant, A. P., D'Amato, D.: Acta Chir Scand. 116, 351/1958/)

Structure (SMILES): CN1CCN(CC(O)CO/N=C2\CCCC\C2=C/c2ccccc2)CC1 (racemic) [Example 4, R,S-2-(E)-Phenylmethylene-1-(E)-[3-(4-methyl-1-piperazinyl)-2'-hydroxy-propoxyimino]-cyclohexane]
- inhibition in vivo at 200 mg/kg (gastric acid secretion; dose 200 mg/kg po., rats): 77%
- LD50 at 336 h [1]: 1800 mg/kg

Structure (SMILES): OC(CO/N=C1\CCCC\C1=C/c1ccccc1)CN1CCN(c2ccccc2)CC1 (racemic) [Example 5, R,S-2-(E)-Phenylmethylene-1-(E)-[3-(4-phenyl-1-piperazinyl)-2-hydroxy-propoxyimino]-cyclohexane]
- ED50 ([2]; po., mice): 70 mg/kg
- TI (therapeutic index) ([2]; po., mice): 14
- LD50 at 336 h [1]: > 1000 mg/kg

Structure (SMILES): OC(CO/N=C1\CCCC\C1=C/c1ccccc1)CN1CCN(Cc2ccccc2)CC1 (racemic) [Example 6, R,S-2-(E)-Phenylmethylene-1-(E)-[3-(4-phenylmethyl-1-piperazinyl)-2-hydroxy-propoxyimino]-cyclohexane]
- ED50 ([2]; po., mice): 140 mg/kg
- TI (therapeutic index) ([2]; po., mice): 7
- LD50 at 336 h [1]: > 1000 mg/kg

Structure (SMILES): OC(CO/N=C1\CCCC\C1=C/c1ccccc1)CN1CCN(c2ccc(Cl)cc2)CC1 (racemic) [Example 12, R,S-2-(E)-Phenylmethylene-1-(E)-{[4-(4-chlorophenyl)-1-piperazinyl]-2-hydroxy-propoxyimino}-cyclohexane]
- ED50 ([2]; po., mice): ~200 mg/kg
- TI (therapeutic index) ([2]; po., mice): about 5
- LD50 at 336 h [1]: 1000 mg/kg

Structure (SMILES): OCCN1CCN(CC(O)CO/N=C2\CCCC\C2=C/c2ccccc2)CC1 (racemic) [Example 13]
- inhibition in vivo at 200 mg/kg (gastric acid secretion; dose 200 mg/kg po., rats): 74%
- LD50 at 336 h [1]: > 1000 mg/kg

Structure (SMILES): OC(CO/N=C1\CCCCC\C1=C/c1ccccc1)CN1CCOCC1 (racemic) [Example 15, R,S-2-(E)-Phenylmethylene-1-(E)-(3-morpholino-2-hydroxypropoxyimino)-cycloheptane]
- ED50 ([2]; po., mice): 140 mg/kg
- TI (therapeutic index) ([2]; po., mice): 7
- LD50 at 336 h [1]: > 1000 mg/kg

Structure (SMILES): OC(CO/N=C1\CCCCCC\C1=C/c1ccccc1)CN1CCOCC1 (racemic) [Example 18, R,S-2-(E)-Phenylmethylene-1-(E)-(3-morpholino-2-hydroxy-propoxyimino)-cyclooctane]
- inhibition in vivo at 200 mg/kg (gastric acid secretion; dose 200 mg/kg po., rats): 68%
- ED50 (hexobarbital narcosis): 25 mg/kg
- TI (therapeutic index) (hexobarbital narcosis): > 40
- change in vivo at 4 mg/kg [3]: -50%
- LD50 at 336 h [1]: > 1000 mg/kg

Structure (SMILES): CN1CCN(CC(O)CO/N=C2\CCCCCC\C2=C/c2ccccc2)CC1 (racemic) [Example 20, R,S-2-(E)-Phenylmethylene-1-(E)-[3-(4-methyl-1-piperazinyl)-2-hydroxy-propoxyimino]-cyclooctane]
- ED50 ([2]; po., mice): ~100 mg/kg
- TI (therapeutic index) ([2]; po., mice): about 10
- ED50 (hexobarbital narcosis): 21.5 mg/kg
- TI (therapeutic index) (hexobarbital narcosis): > 46.5
- LD50 at 336 h [1]: > 1000 mg/kg

Structure (SMILES): CC(C)N(CC(O)CO/N=C1\CCC\C1=C/c1ccccc1)C(C)C (racemic) [Example 21, R,S-2-(E)-Phenylmethylene-{3-[bis-(1-methylethyl)-amino]-2-hydroxy-propoxyimino}-cyclopentane]
- change in vivo at 4 mg/kg [3]: -46%
- EC50 % (nervus ischiadicus): 0.24%
- Duration of effect (nervus ischiadicus): 89 min
- LD50 at 336 h [1]: 700 mg/kg

Structure (SMILES): CCCCNCC(O)CO/N=C1\CCCC\C1=C/c1ccc(Cl)cc1 (racemic) [Example 29, R,S-2-(E)-(4-Chlorophenyl-methylene)-1-(E)-(3-butylamino-2-hydroxy-propoxyimino)-cyclohexane]
- inhibition in vivo at 260 mg/kg (gastric acid secretion; dose 260 mg/kg po., rats): 87%
- ED50 (hexobarbital narcosis): 30 mg/kg
- TI (therapeutic index) (hexobarbital narcosis): 43
- LD50 at 336 h [1]: 1300 mg/kg

Structure (SMILES): CC(C)CNCC(O)CO/N=C1\CCCC\C1=C/c1ccc(Cl)cc1 (racemic) [Example 30, R,S-2-(E)-(4-Chlorophenyl-methylene)-1-(E)-[3-(2-methylpropylamino)-2-hydroxy-propoxyimino]-cyclohexane]
- ED50 ([2]; po., mice): 130 mg/kg
- TI (therapeutic index) ([2]; po., mice): 8
- LD50 at 336 h [1]: 1100 mg/kg

Structure (SMILES): C#CC(C)(C)NCC(O)CO/N=C1\CCCC\C1=C/c1ccc(Cl)cc1 (racemic) [Example 32, R,S-2-(E)-(4-Chlorophenyl-methylene)-1-(E)-[3-(1,1-dimethylpropin-2-yl-amino)-2-hydroxy-propoxyimino]-cyclohexane]
- inhibition in vivo at 400 mg/kg (gastric acid secretion; dose 400 mg/kg po., rats): 62%
- ED50 (hexobarbital narcosis): 50 mg/kg
- TI (therapeutic index) (hexobarbital narcosis): > 40
- LD50 at 336 h [1]: > 2000 mg/kg

Structure (SMILES): CCCCNCC(O)CO/N=C1\CCCC\C1=C/c1ccc(Cl)c(Cl)c1 (racemic) [Example 33, R,S-2-(E)-(3,4-Dichlorophenyl-methyl)-1-(E)-(3-butylamino-2-hydroxy-propoxyimino)-cyclohexane]
- inhibition in vivo at 200 mg/kg (gastric acid secretion; dose 200 mg/kg po., rats): 100%
- LD50 at 336 h [1]: > 1000 mg/kg

Structure (SMILES): COc1ccccc1/C=C1\CCCC\C1=N/OCC(O)CN1CCN(c2ccccc2OC)CC1 (racemic) [Example 38, R,S-2-(E)-(2-Methoxyphenyl-methylene)-1-(E)-{[4-(2-methoxyphenyl)-1-piperazinyl]-2-hydroxy-propoxyimino}-cyclohexane]
- ED50 ([2]; po., mice): 23 mg/kg
- TI (therapeutic index) ([2]; po., mice): 44
- ED50 (hexobarbital narcosis): 61 mg/kg
- TI (therapeutic index) (hexobarbital narcosis): 16
- LD50 at 336 h [1]: > 1000 mg/kg

Structure (SMILES): COc1ccc(/C=C2\CCCC\C2=N/OCC(O)CNC2CC2)cc1 (racemic) [Example 40, R,S-2-(E)-(4-Methoxyphenyl-methylene)-1-(E)-(3-cyclopropylamino-2-hydroxy-propoxyimino)-cyclohexane]
- inhibition in vivo at 160 mg/kg (gastric acid secretion; dose 160 mg/kg po., rats): 57%
- EC50 % (nervus ischiadicus): 0.19%
- Duration of effect (nervus ischiadicus): 68 min
- LD50 at 336 h [1]: 800 mg/kg

Structure (SMILES): COc1ccc(/C=C2\CCCC\C2=N/OCC(O)CNCCCN(C)C)cc1 (racemic) [Example 41, R,S-2-(E)-(4-Methoxyphenyl-methylene)-1-(E)-[3-(3-dimethylamino-1-propylamino)-2-hydroxy-propoxyimino]-cyclohexane]
- inhibition in vivo at 200 mg/kg (gastric acid secretion; dose 200 mg/kg po., rats): 67%
- LD50 at 336 h [1]: > 1000 mg/kg

Structure (SMILES): CN(CC(O)CO/N=C1\CCCC\C1=C/c1ccc(Cl)cc1)C1CCCCC1 (racemic) [Example 45, R,S-2-(E)-(4-Chlorophenyl-methylene)-1-(E)-[3'-(N-methyl-N-cyclohexylamino)-2-hydroxy-propoxyimino]-cyclohexane]
- inhibition in vivo at 200 mg/kg (gastric acid secretion; dose 200 mg/kg po., rats): 100%
- LD50 at 336 h [1]: > 1000 mg/kg

Structure (SMILES): CC(C)NCC(O)CO/N=C1\CCCCCC\C1=C/c1ccccc1 (racemic) [Example 48, R,S-2-(E)-Phenylmethylene-1-(E)-[3-(1-methylethyl-amino)-2-hydroxypropxyimino]-cyclooctane]
- inhibition in vivo at 100 mg/kg (gastric acid secretion; dose 100 mg/kg po., rats): 75%
- change in vivo at 4 mg/kg [3]: -43.5%
- EC50 % (nervus ischiadicus): 0.31%
- Duration of effect (nervus ischiadicus): 122 min
- LD50 at 336 h [1]: > 1000 mg/kg

Structure (SMILES): CN/C(=N/CCSCc1nc[nH]c1C)NC#N [Cimetidine, reference compound]
- inhibition in vivo at 100 mg/kg (gastric acid secretion; po): 66%
- inhibition in vivo at 200 mg/kg (gastric acid secretion; po): 91%

Structure (SMILES): CCN(CC)CC(=O)Nc1c(C)cccc1C [Lidocain, reference compound]
- EC50 % (nervus ischiadicus): 0.19%
- Duration of effect (nervus ischiadicus): 34 min

Structure (SMILES): COc1ccc(Cc2nccc3cc(OC)c(OC)cc23)cc1OC [Papaverine, reference compound]
- inhibition (antiperistaltic) ([2]; 280 mg/kg po., mice): 36%
- ED50 ([2]; po): > 280 mg/kg

Structure (SMILES): COc1cc(C(=S)N2CCOCC2)cc(OC)c1OC [Trithiozine, reference compound]
- inhibition in vivo at 100 mg/kg (gastric acid secretion; po): 30%
- inhibition in vivo at 400 mg/kg (gastric acid secretion; po): 63%
